Measured values published in paper PMC5520057, “Modulation of nongenomic activation of PI3K signalling by tetramerization of N-terminally-cleaved RXRα” (Nature Communications, 2017).
Read-outs that look alike come from different tables or passages of the source.

What was measured:
[1] = system: RXRα-LBD/R316E; assay: Non-denaturing gel electrophoresis, R316E mutant; assay type: biochemical, human; details: 9-cis-RA (0.5 μM) or K-80003 (20 μM), 3 h at 4 °C
Protocol: (§1) The human RXRα LBD (residues Thr223 to Thr462) cloned as an N-terminal histidine-tagged fusion protein in pET15b expression vector was expressed in Escherichia coli BL21 strain (Stratagene). After sonication, cell extract was incubated with the His60 Ni Superflow resin, and His-tagged RXRα-LBD-resin complexes were washed, eluted and concentrated to 5 mg ml^−1 for subsequent trails. For crystallization experiment, bovine thrombin (Sigma) was used to cleave the His tag from the purified His-tagged RXRα-LBD. The resulting His tag was removed on the Resource-Q column (GE) using 0.1–1 M NaCl gradient and the Tris-Cl pH 8 buffer. RXRα-LDB was further purified using gel filtration on a Superdex 200 2660 column (GE) pre-equilibrated with the 75 mM NaCl, 20 mM Tris-Cl buffer (pH 8).

[2] = system: p85α / tRXRα interaction; assay: coIP, p85α with tRXRα; assay type: cell-based; details: conclusion from structure and crosslinking
Protocol: For coIP assay[29], HEK293T cells grown in 10 cm dishes were transfected with various plasmids. Cells were lysed in 1 ml of lysis buffer (20 mM Tris (pH 7.5), 150 mM NaCl, 1% Triton X-100, 1 mM EDTA, 30 mM NaF, 2 mM sodium pyrophosphate) with a cocktail of proteinase inhibitors (Roche). Lysates were incubated with the appropriate antibody for 12 h at 4 °C and subsequently incubated with protein A-Sepharose beads for 1 h. The immunoprecipitates were collected and washed three times with lysis buffer. The protein–antibody complexes recovered on beads were subjected to immunoblotting using appropriate antibodies after separation by SDS-PAGE. Input represents 5% of cell lysates used for coIP assays.

[3] = system: RXRα; assay: MMTV-PyMT tumours, RXRα immunostaining; assay type: in vivo, MMTV-PyMT mice; details: diet with K-80003 (100 mg kg^−1) for 4 weeks; Δ197 anti-RXRα antibody
Protocol: (§2) Cells mounted on glass slides or tumour tissue frozen sections (5-μm-thick) were washed with PBS and fixed in 4% paraformaldehyde (PFA) for 15 min and permeabilized with PBS containing 0.1% Triton X-100 for 15 min. Fixed cells or tumour tissues were blocked with 5 mg ml^−1 BSA in PBS for 30 min at room temperature, followed with incubation with primary antibodies for 3 h and secondary antibodies at room temperature for 1 h and co-stained with 4′6′-diamidino-2-phenylindole (DAPI) to visualize nuclei. The images were taken under an LSM-510 confocal laser scanning microscope system (Carl Zeiss).
(§3) For nude mice xenograft study, Myc-RXRα and Myc-tRXRα cloned into pcdna3.0 vector were stably transfected into MCF-7 cells, and the resulting stable clones and control clone (2 × 10^6 cells in 100 μl) were injected subcutaneously into nude mice (BALB/c, SPF grade, 16–18 g, 4–5-week old). For drug treatment, mice were intraperitoneally injected (i.p.) daily with K-80003 (20 mg kg^−1) diluted in Tween-80 or vehicle (tween-80). Body weight and tumour size were measured every 2 days. Mice were killed after 12-day drug treatment and the tumours removed for various assessments. […]

[4] = system: RXRα; assay: BS3 crosslinking, transfected full-length RXRα; assay type: cell-based; details: HepG2 cells; K-80003 (5 × 10^−6 M) for 6 h; BS3 1 mM; western blotting
Protocol: (§4) Cell lysates were then prepared and incubated with bis[sulfosuccinimidyl] suberate (BS3, Pierce) dissolved in dimethyl sulfoxide to a final concentration of 1 mM. The reactions were stopped with protein gel loading buffer. Samples were resolved by SDS/PAGE in 8% acrylamide gels and protein bands were visualized by western blotting.

[5] = system: tRXRα; assay: Nuclear/cytoplasmic fractionation with BS3 crosslinking; assay type: cell-based; details: HEK293T cells, K-80003 (5 × 10^−6 M) for 6 h, one of three similar experiments
Protocol: as §4
(§5) Proteins or cell lysates were electrophoresed by SDS-PAGE gel and transferred to polyvinylidene difluoride (PVDF) membrane. The membranes were blocked with 5% skimmed milk in TBST (50 mM Tris-HCl (pH 7.4), 150 mM NaCl and 0.1% Tween20) for 1 h, then incubated with primary antibodies and secondary antibodies and detected using ECL system (Thermo). The dilutions of the primary antibodies were anti-RXRα (ΔN197, Santa Cruz) in 1:1,000, anti-PARP (H-250, Santa Cruz) in 1:3,000, anti-p85α (Millipore) in 1:1,000, anti-p-AKT (D9E, Cell Signaling Technology) in 1:1000, anti-AKT1/2/3 (H-136, Santa Cruz) in 1:1,000, anti-β-actin (Sigma) in 1:5,000, anti-c-myc (9E10, Santa Cruz) in 1:3,000, anti-HA (F-7, Santa Cruz) in 1:3,000, anti-Flag (F1804, Sigma) in 1:3,000. Images of all uncropped western blots can be found in Supplementary Figs 10–14.

[6] = system: p85α / tRXRα interaction; parameters: method as in PMID 20541701; details: cited from earlier work
[7] = system: tRXRα/L433D; assay: Subcellular localization of tRXRα/L433D, immunostaining; assay type: cell-based; details: MCF-7 cells; K-80003 (5 × 10^−6 M) for 3 h, then TNFα (10 ng ml^−1) for 30 min
Protocol: as §2

[8] = system: MMTV-PyMT mammary tumour; assay: MMTV-PyMT tumours, Ki-67 immunostaining; assay type: in vivo, MMTV-PyMT mice; details: diet with K-80003 (100 mg kg^−1) for 4 weeks; Ki-67 positive cells scored from 500 cells
Protocol: as §3, with “assessments. For MMTV-PyMT transgenic mouse study, 4-week old female mice of a transgenic mouse on the FVB/N genetic background expressing the PyMT oncogene under the control of MMTV LTR promoter[40] were fed with diet containing with or without K-80003 (100 mg kg^−1) for 4 weeks. Estimation of tumour appearance was performed by palpation once every day. Tumour tissues of left thoracic mammary glands were excised after the treatment.” for “assessments.”
(a) Expression of tRXRα in MMTV-PyMT mammary tumors analyzed by Western blotting using ΔN197 anti-RXRα antibody.
(b) Tumor sections from MMTV-PyMT mice fed with vehicle or K-80003 were immunostained with anti-Ki-67 antibody. Ki-67 positive cells were scored from 500 cells. […]

[9] = system: PyMT mammary tumour; assay: MMTV-PyMT transgenic mice, mammary tumour; assay type: in vivo; details: 4-week old MMTV-PyMT mice; diet with K-80003 (100 mg kg^−1) for 4 weeks
Protocol: For nude mice xenograft study, Myc-RXRα and Myc-tRXRα cloned into pcdna3.0 vector were stably transfected into MCF-7 cells, and the resulting stable clones and control clone (2 × 10^6 cells in 100 μl) were injected subcutaneously into nude mice (BALB/c, SPF grade, 16–18 g, 4–5-week old). For drug treatment, mice were intraperitoneally injected (i.p.) daily with K-80003 (20 mg kg^−1) diluted in Tween-80 or vehicle (tween-80). Body weight and tumour size were measured every 2 days. Mice were killed after 12-day drug treatment and the tumours removed for various assessments. For MMTV-PyMT transgenic mouse study, 4-week old female mice of a transgenic mouse on the FVB/N genetic background expressing the PyMT oncogene under the control of MMTV LTR promoter[40] were fed with diet containing with or without K-80003 (100 mg kg^−1) for 4 weeks. Estimation of tumour appearance was performed by palpation once every day. Tumour tissues of left thoracic mammary glands were excised after the treatment. Portion of tissues was used to prepare extracts for western blotting, while the rest was fixed in 4% phosphate-buffered paraformaldehyde, and used for immunohistochemical staining using anti-Ki67 antibody and immunostaining using Δ197 anti-RXRα antibody. All experimentations and animal usage were performed and approved by the Animal Care and Use Committee of Xiamen University.

[10] = system: MMTV-PyMT mammary tumour; assay: MMTV-PyMT tumours, western blotting; assay type: in vivo, MMTV-PyMT mice; details: diet with K-80003 (100 mg kg^−1) for 4 weeks
Protocol: as §5
as §3, with “days.” for “days. Mice were killed after 12-day drug treatment and the tumours removed for various assessments.”

[11] = system: RXRα-LBD/L433D; assay: Non-denaturing gel electrophoresis, L433D mutant; assay type: biochemical, human; details: K-80003 (20 μM), 3 h at 4 °C
Protocol: as §1

[12] = system: tRXRα/F313A; assay: BS3 crosslinking, tRXRα/F313A; assay type: cell-based; details: MCF-7 cells, 9-cis-RA (10^−7 M) or K-80003 (5 × 10^−6 M) for 6 h
Protocol: as §4

Structure (SMILES): CC1=C(CC(=O)O)c2cc(F)ccc2/C1=C\c1ccc(C(C)C)cc1 [K-80003]
- effect on oligomeric state of RXRα-LBD/R316E [1]: exhibited mainly as a tetramer independent of the presence of either 9-cis-RA or K-80003
- inhibition of tRXRα interaction with p85α [2]: inhibits tRXRα interaction with p85α by promoting tRXRα tetramerization
- RXRα staining localization in PyMT tumours [3]: mainly found in the nucleus
- tetramerization of full-length RXRα [4]: failed to promote the tetramerization of the full-length RXRα
- distribution of tetrameric tRXRα [5]: found exclusively in the nuclear fraction
- inhibition of tRXRα interaction with p85α [6]: inhibits its interaction with p85α
- effect on cytoplasmic colocalization of p85α with tRXRα/L433D [7]: not affected by K-80003
- tumour cell proliferation (Ki-67) [8]: inhibition of tumour cell proliferation
- growth of PyMT mammary tumour [9]: potently inhibited the growth of PyMT mammary tumour
- PARP cleavage in PyMT tumours [10]: induction of PARP cleavage
- cyclin D expression in PyMT tumours [10]: inhibition of cyclin D expression
- effect on tetramerization of RXRα-LBD/L433D [11]: failed to bind to RXRα-LBD/L433D (Supplementary Fig. 5a) and promote its tetramerization
- oligomeric state of tRXRα/F313A [12]: strong tetrameric species of tRXRα/R316E but not tRXRα/F313A independent of the presence of 9-cis-RA or K-80003
